Measurements published in publication PMC7031696 (Cell chemical biology, 2019).
Like-named read-outs stand apart in the source and are kept apart here.

Key:
[1] = system: 3D7-MR4 trophozoite parasite-infected RBCs; experiment: Metabolomic profiling (hydrophilic metabolite changes, UHPLC-MS); format: cell-based, Plasmodium falciparum
[2] = system: Plasmodium falciparum 3D7-A10 parasites; experiment: Stage specificity assay (8-h exposure of synchronized stages, IC50^8h); format: cell-based; settings: Plasmodium falciparum
[3] = system: asynchronous 3D7-A10 parasite cultures; experiment: Standard 72-h exposure asexual blood stage susceptibility assay (IC50^72h); format: cell-based, Plasmodium falciparum; settings: Plasmodium falciparum, 3D7, 72 h, read-out: Overall (72hr assay) Mean IC50 (IC50^72h)

## O=C(Nc1ccc(N2CCNCC2)cc1)c1ccn2ncc(-c3cccc(Cl)c3)c2n1.O=C(O)C(F)(F)F [MMV022478]
[1]; 10 × IC50^72h, 2.5 hr, trophozoites
  peptide levels (hemoglobin catabolism signature): decreased peptide levels
[1]; metabolite 3-phosphoglycerate, log2 fold change
  Log2(fold changes) 3-phosphoglycerate: -0.2221
[1]; metabolite 4-Pyridoxic acid, log2 fold change
  Log2(fold changes) 4-Pyridoxic acid: 0.0000
[1]; metabolite 4-aminobutyrate, log2 fold change
  Log2(fold changes) 4-aminobutyrate: -1.1535
[1]; metabolite 4-phosphopantetheine, log2 fold change
  Log2(fold changes) 4-phosphopantetheine: 0.0000
[1]; metabolite 4-phosphopantothenate, log2 fold change
  Log2(fold changes) 4-phosphopantothenate: -2.5840
[1]; metabolite 5-aminopentanoic acid, log2 fold change
  Log2(fold changes) 5-aminopentanoic acid: 0.0000
[1]; metabolite 5-methyl-THF, log2 fold change
  Log2(fold changes) 5-methyl-THF: 0.0000
[1]; metabolite 5-phosphoribosyl-1-pyrophosphate, log2 fold change
  Log2(fold changes) 5-phosphoribosyl-1-pyrophosphate: -3.8277
[1]; metabolite 6-phospho-D-gluconate, log2 fold change
  Log2(fold changes) 6-phospho-D-gluconate: -1.2363
[1]; metabolite HVDD
  Log2(fold change) HVDD: -6.0354
[1]; metabolite Hydroxyisocaproic acid
  Log2(fold change) Hydroxyisocaproic acid: 0.0000
[1]; metabolite IDP
  Log2(fold change) IDP: 0.0000
[1]; metabolite IMP
  Log2(fold change) IMP: -1.9723
[1]; metabolite Inositol
  Log2(fold change) Inositol: 0.0000
[1]; metabolite Isopentyl-PP
  Log2(fold change) Isopentyl-PP: 0.0000
[1]; metabolite L-arginino-succinate
  Log2(fold change) L-arginino-succinate: 0.0000
[1]; metabolite LD
  Log2(fold change) LD: 0.0000
[1]; metabolite Myristoyl/tetradecanoyl-CoA
  Log2(fold change) Myristoyl/tetradecanoyl-CoA: 0.0000
[1]; metabolite N-Acetyl-L-alanine
  Log2(fold change) N-Acetyl-L-alanine: -4.1046
[1]; metabolite N-acetyl-L-ornithine
  Log2(fold change) N-acetyl-L-ornithine: -4.9077
[1]; metabolite N-acetyl-glucosamine-1/6-phosphate
  Log2(fold change) N-acetyl-glucosamine-1/6-phosphate: -2.7078
[1]; metabolite N-acetyl-glutamate
  Log2(fold change) N-acetyl-glutamate: -2.2943
[1]; metabolite N-acetyl-glutamine
  Log2(fold change) N-acetyl-glutamine: 0.0000
[1]; metabolite N-carbamoyl-L-aspartate
  Log2(fold change) N-carbamoyl-L-aspartate: -4.4049
[1]; metabolite NAD+
  Log2(fold change) NAD+: 0.0000
[1]; metabolite NADH
  Log2(fold change) NADH: 0.4682
[1]; metabolite NADP+
  Log2(fold change) NADP+: -1.0797
[1]; metabolite NADPH
  Log2(fold change) NADPH: -1.0955
[1]; metabolite O-acetyl-L-serine
  Log2(fold change) O-acetyl-L-serine: 0.0000
[1]; metabolite Octoluse 8/1P
  Log2(fold change) Octoluse 8/1P: 0.0000
[1]; metabolite Octoluse Bisphosphate
  Log2(fold change) Octoluse Bisphosphate: -0.1243
[1]; metabolite PD
  Log2(fold change) PD: -4.6260
[1]; metabolite PE
  Log2(fold change) PE: -5.1379
[1]; metabolite PEE
  Log2(fold change) PEE: -4.6436
[1]; metabolite PEEK
  Log2(fold change) PEEK: 0.0000
[1]; metabolite PVNF
  Log2(fold change) PVNF: -7.1540
[1]; metabolite Pyroglutamic acid
  Log2(fold change) Pyroglutamic acid: 0.0000
[1]; metabolite Pyrophosphate
  Log2(fold change) Pyrophosphate: 0.0000
[1]; metabolite Ribose-5-phosphate
  Log2(fold change) Ribose-5-phosphate: -2.7334
[1]; metabolite S-adenosyl-L-homocysteine
  Log2(fold change) S-adenosyl-L-homocysteine: -2.8781
[1]; metabolite S-adenosyl-L-methioninamine
  Log2(fold change) S-adenosyl-L-methioninamine: 0.0000
[1]; metabolite S-adenosyl-L-methionine
  Log2(fold change) S-adenosyl-L-methionine: 0.0000
[1]; metabolite S-methyl-5'-thioadenosine
  Log2(fold change) S-methyl-5'-thioadenosine: 0.0000
[1]; metabolite SD
  Log2(fold change) SD: -2.2622
[1]; metabolite SDL
  Log2(fold change) SDL: 0.0000
[1]; metabolite SID
  Log2(fold change) SID: -5.7557
[1]; metabolite Sedoheptulose bisphosphate
  Log2(fold change) Sedoheptulose bisphosphate: -0.2613
[1]; metabolite Thiamine pyrophosphate
  Log2(fold change) Thiamine pyrophosphate: 0.0000
[1]; metabolite UDP-D-glucose, log2 fold change
  Log2(fold changes) UDP-D-glucose: -0.2797
[1]; metabolite UDP-D-glucuronate, log2 fold change
  Log2(fold changes) UDP-D-glucuronate: -0.6750
[1]; metabolite UDP-N-acetyl-glucosamine, log2 fold change
  Log2(fold changes) UDP-N-acetyl-glucosamine: -0.7739
[1]; metabolite UDP, log2 fold change
  Log2(fold changes) UDP: -2.1596
[1]; metabolite UMP, log2 fold change
  Log2(fold changes) UMP: -1.4504
[1]; metabolite UTP, log2 fold change
  Log2(fold changes) UTP: -1.2572
[1]; metabolite hydroxyphenylpyruvate
  Log2(fold change) hydroxyphenylpyruvate: 0.0000
[1]; metabolite hydroxyproline/Aminolevulinate
  Log2(fold change) hydroxyproline/Aminolevulinate: -0.1426
[1]; metabolite hypoxanthine
  Log2(fold change) hypoxanthine: 0.3419
[1]; metabolite indole
  Log2(fold change) indole: 0.0000
[1]; metabolite inosine
  Log2(fold change) inosine: -0.5164
[1]; metabolite isoleucine
  Log2(fold change) isoleucine: 0.2629
[1]; metabolite lactate
  Log2(fold change) lactate: -0.9550
[1]; metabolite leucine
  Log2(fold change) leucine: 0.0229
[1]; metabolite lysine
  Log2(fold change) lysine: 0.0000
[1]; metabolite malate
  Log2(fold change) malate: -1.9880
[1]; metabolite maleic acid
  Log2(fold change) maleic acid: -2.0576
[1]; metabolite methionine
  Log2(fold change) methionine: 0.4668
[1]; metabolite myo-inositol
  Log2(fold change) myo-inositol: 0.0000
[1]; metabolite nicotinamide mononucleotide
  Log2(fold change) nicotinamide mononucleotide: 0.0000
[1]; metabolite nicotinate
  Log2(fold change) nicotinate: -0.5789
[1]; metabolite ornithine
  Log2(fold change) ornithine: 0.0000
[1]; metabolite orotate
  Log2(fold change) orotate: -1.4233
[1]; metabolite orotidine-5'-phosphate
  Log2(fold change) orotidine-5'-phosphate: -3.1182
[1]; metabolite oxaloacetate
  Log2(fold change) oxaloacetate: 0.0000
[1]; metabolite p-aminobenzoate
  Log2(fold change) p-aminobenzoate: 0.0000
[1]; metabolite p-hydroxybenzoate
  Log2(fold change) p-hydroxybenzoate: 0.0000
[1]; metabolite pantothenate
  Log2(fold change) pantothenate: -0.7783
[1]; metabolite phenylalanine
  Log2(fold change) phenylalanine: -0.1127
[1]; metabolite phenylpyruvate
  Log2(fold change) phenylpyruvate: 0.0000
[1]; metabolite phosphoenolpyruvate
  Log2(fold change) phosphoenolpyruvate: 0.1262
[1]; metabolite prephenate
  Log2(fold change) prephenate: 0.0000
[1]; metabolite proline
  Log2(fold change) proline: -0.3073
[1]; metabolite pyridoxine
  Log2(fold change) pyridoxine: 0.2157
[1]; metabolite pyruvate
  Log2(fold change) pyruvate: -1.6686
[1]; metabolite riboflavin
  Log2(fold change) riboflavin: 0.0000
[1]; metabolite ribose
  Log2(fold change) ribose: 0.4922
[1]; metabolite ribose-phosphate
  Log2(fold change) ribose-phosphate: -2.5305
[1]; metabolite ribulose-5-phosphate
  Log2(fold change) ribulose-5-phosphate: -2.3648
[1]; metabolite serine
  Log2(fold change) serine: -0.3911
[1]; metabolite sn-glycerol-3-phosphate
  Log2(fold change) sn-glycerol-3-phosphate: -0.4279
[1]; metabolite succinate/Methylmalonic acid
  Log2(fold change) succinate/Methylmalonic acid: -3.0813
[1]; metabolite succinyl-CoA/methylmalonyl-CoA
  Log2(fold change) succinyl-CoA/methylmalonyl-CoA: -1.6128
[1]; metabolite taurine
  Log2(fold change) taurine: 0.0000
[1]; metabolite thiamine
  Log2(fold change) thiamine: 0.0000
[1]; metabolite threonine/homoserine
  Log2(fold change) threonine/homoserine: -0.6870
[1]; metabolite thymidine
  Log2(fold change) thymidine: 0.0000
[1]; metabolite thymine, log2 fold change
  Log2(fold changes) thymine: 0.0000
[1]; metabolite trehalose-6-Phosphate, log2 fold change
  Log2(fold changes) trehalose-6-Phosphate: 0.0000
[1]; metabolite tryptophan, log2 fold change
  Log2(fold changes) tryptophan: 0.1771
[1]; metabolite tyrosine, log2 fold change
  Log2(fold changes) tyrosine: -0.0043
[1]; metabolite uridine, log2 fold change
  Log2(fold changes) uridine: 0.0000
[2]; 3D7, 8 h, read-out: IC50^8h values at all tested stages, 8-h exposures, all asexual blood stages
  IC50: > 1 µM
[2]; 3D7, read-out: Early rings Mean IC50 (IC50^8h), 8-h exposure 0–8 hr, 3D7-A10, survival at 60 h
  IC50: 7.63 µM
[2]; 3D7, read-out: Early trophozoites Mean IC50 (IC50^8h), 8-h exposure 16–24 hr, 3D7-A10, survival at 60 h
  IC50: 2.13 µM
[2]; 3D7, read-out: Late rings Mean IC50 (IC50^8h), 8-h exposure 8–16 hr, 3D7-A10, survival at 60 h
  IC50: 4.87 µM
[2]; 3D7, read-out: Late trophozoites Mean IC50 (IC50^8h), 8-h exposure 24–32 hr, 3D7-A10, survival at 60 h
  IC50: 2.53 µM
[2]; 3D7, read-out: Schizonts Mean IC50 (IC50^8h), 8-h exposure 32–40 hr, 3D7-A10, survival at 60 h
  IC50: 3.37 µM
[3]
  IC50: 11.1 nM
